pIC50: −log10 of the molar value. Like-named read-outs stand apart in the source and are kept apart here.
Columns and labels:
Format in all cases: cell-based
[1] = system: T84 cells; experiment: Inhibition of T84 colon carcinoma cell proliferation (WST-1, Example 1); conditions: Homo sapiens, 24 hours incubation
Protocol: The effect of N,N,-diethyl-8,8-dipropyl-2-azaspiro[4,5]decane-2-propanamine dimaleate (Compound 1) on proliferation of human colon carcinoma cells T84 and CaCo-2 was evaluated in the following manner. Cell proliferation was measured by WST-1 dye conversion to Formazan assay using the proliferation kit from BioVision, CA. The procedure used was essentially as described in the manufacture's instructions. Briefly, cells were grown for 7 days until they formed semi-confluent monolayers. On day 7, cells were trypsinized and resuspended in 96-well plates at a concentration of approximately 40,000 cells/well and allowed to grow for 24 hours at 37° C.
Subsequently, fresh media containing increasing concentrations of Compound 1, as indicated in the FIG. 1, were added and assay plates were further incubated for an additional period of 24 hours. A solution of 5 μl of WST-1 dye per well was added and plates were read after 4 hours at 440 and 600 nm using an ELISA plate reader. The absorbance at 440 minus that at 600 nm is directly proportion to the number of proliferating cells. All samples were measured in triplicate and results were expressed as an average of three determinations.

[2] = system: 786-0; experiment: NCI in vitro SRB assay, Renal Cancer; conditions: for CC50 / GI50: Homo sapiens
Protocol: (§1) An in vitro assay which tested the ability of N,N,-diethyl-8,8-dipropyl-2-azaspiro[4,5]decane-2-propanamine dimaleate (Compound 1) to inhibit the growth of known cancer cell lines was performed by the National Cancer Institute in accordance with standard procedures. See: Lin, Z. X., Hoult, J. R., and Raman, A. Sulphorhodamine B assay for measuring proliferation of a pigmented melanocyte cell line and its application to the evaluation of crude drugs used in the treatment of vitiligo. J Ethnopharmacol. 66: 141-150, 1999. Briefly, selected tumor cell lines were cultured in media containing five different concentrations of Compound 1. After 48 hours of continuous exposure, a sulforhodamine B (SRB) assay was used to estimate cell viability or growth via optical measurements.
(§2) From the measurements, the following values were determined: 1) the concentration of Compound 1 at which a tumor cell growth inhibition of 50% (relative to control) occurs (GI50), 2) the concentration of Compound 1 at which no growth occurs (total growth inhibition, TGI), and 3) the concentration of Compound 1 at which the […] (LC 50). […] FIG. 6 illustrates, graphically, tumor cell growth as a function of Compound 1 concentration of the scanned tumor cell lines.

[3] = system: A498; experiment: NCI in vitro SRB assay, Renal Cancer; conditions: for GI50: Homo sapiens
Protocol: as §1, §2

[4] = system: ACHN; experiment: NCI in vitro SRB assay, Renal Cancer; conditions: for GI50: Homo sapiens
Protocol: as §1, §2

[5] = system: CAKI-1; experiment: NCI in vitro SRB assay, Renal Cancer; conditions: for CC50 / GI50: Homo sapiens
Protocol: as §1, §2

[6] = system: RXF 393; experiment: NCI in vitro SRB assay, Renal Cancer; conditions: for CC50 / GI50: Homo sapiens
Protocol: as §1, §2

[7] = system: SN12C; experiment: NCI in vitro SRB assay, Renal Cancer; conditions: for GI50 / CC50: Homo sapiens
Protocol: as §1, §2

[8] = system: UO-31; experiment: NCI in vitro SRB assay, Renal Cancer; conditions: for CC50 / GI50: Homo sapiens
Protocol: as §1, §2

[9] = read-out: Log10 GI50 (converted)
[10] = CAKI-1, Log10 conc -4.0 Moles/L
[11] = CAKI-1, Log10 conc -5.0 Moles/L
[12] = CAKI-1, Log10 conc -6.0 Moles/L
[13] = CAKI-1, Log10 conc -7.0 Moles/L
[14] = CAKI-1, Log10 conc -8.0 Moles/L
[15] = RXF 393, Log10 conc -4.0 Moles/L
[16] = RXF 393, Log10 conc -5.0 Moles/L
[17] = RXF 393, Log10 conc -6.0 Moles/L
[18] = RXF 393, Log10 conc -7.0 Moles/L
[19] = RXF 393, Log10 conc -8.0 Moles/L

SMILES: CCCC1(CCC)CCC2(CCN(CCCN(CC)CC)C2)CC1.O=C(O)/C=C\C(=O)O.O=C(O)/C=C\C(=O)O [Compound 1, N,N,-diethyl-8,8-dipropyl-2-azaspiro[4,5]decane-2-propanamine dimaleate]
- pIC50 [1]: 5.90 to 6.20
- Log10 TGI ([2]; 786-0): −5.48
- TGI ([2]; 786-0): 3330 nM
- Mean Optical Densities ([2]; 786-0, Log10 conc -4.0 Moles/L): 0.132
- Percent Growth ([2]; 786-0, Log10 conc -4.0 Moles/L): −64%
- Mean Optical Densities ([2]; 786-0, Log10 conc -5.0 Moles/L): 0.121
- Percent Growth ([2]; 786-0, Log10 conc -5.0 Moles/L): −67%
- Mean Optical Densities ([2]; 786-0, Log10 conc -6.0 Moles/L): 0.934
- Percent Growth ([2]; 786-0, Log10 conc -6.0 Moles/L): 73%
- Mean Optical Densities ([2]; 786-0, Log10 conc -7.0 Moles/L): 1.091
- Percent Growth ([2]; 786-0, Log10 conc -7.0 Moles/L): 94%
- Mean Optical Densities ([2]; 786-0, Log10 conc -8.0 Moles/L): 1.111
- Percent Growth ([2]; 786-0, Log10 conc -8.0 Moles/L): 96%
- CC50 ([2]; 786-0, read-out: LC50): 7570 nM
- CC50 ([2]; 786-0, read-out: Log10 LC50 (converted)): 7590 nM
- GI50 ([2]; 786-0, read-out: GI50): 1470 nM
- GI50 ([2]; 786-0, read-out: Log10 GI50 (converted)): 1480 nM
- Log10 TGI [3]: −5.50
- TGI [3]: 3130 nM
- GI50 ([3]; read-out: GI50): 1680 nM
- GI50 [3, 9]: 1700 nM
- Mean Optical Densities ([3]; Log10 conc -4.0 Moles/L): 0.157
- Percent Growth ([3]; Log10 conc -4.0 Moles/L): −85%
- Mean Optical Densities ([3]; Log10 conc -5.0 Moles/L): 0.065
- Percent Growth ([3]; Log10 conc -5.0 Moles/L): −94%
- Mean Optical Densities ([3]; Log10 conc -6.0 Moles/L): 1.336
- Percent Growth ([3]; Log10 conc -6.0 Moles/L): 92%
- Mean Optical Densities ([3]; Log10 conc -7.0 Moles/L): 1.327
- Percent Growth ([3]; Log10 conc -7.0 Moles/L): 89%
- Mean Optical Densities ([3]; Log10 conc -8.0 Moles/L): 1.297
- Percent Growth ([3]; Log10 conc -8.0 Moles/L): 79%
- Log10 TGI [4]: −5.55
- TGI [4]: 2810 nM
- GI50 ([4]; read-out: GI50): 1490 nM
- GI50 [4, 9]: 1480 nM
- Mean Optical Densities ([4]; Log10 conc -4.0 Moles/L): −0.041
- Percent Growth ([4]; Log10 conc -4.0 Moles/L): −100%
- Mean Optical Densities ([4]; Log10 conc -5.0 Moles/L): −0.031
- Percent Growth ([4]; Log10 conc -5.0 Moles/L): −100%
- Mean Optical Densities ([4]; Log10 conc -6.0 Moles/L): 0.705
- Percent Growth ([4]; Log10 conc -6.0 Moles/L): 81%
- Mean Optical Densities ([4]; Log10 conc -7.0 Moles/L): 0.711
- Percent Growth ([4]; Log10 conc -7.0 Moles/L): 83%
- Mean Optical Densities ([4]; Log10 conc -8.0 Moles/L): 0.721
- Percent Growth ([4]; Log10 conc -8.0 Moles/L): 85%
- Log10 TGI ([5]; CAKI-1): −5.49
- TGI ([5]; CAKI-1): 3270 nM
- Mean Optical Densities [5, 10]: 0.136
- Percent Growth [5, 10]: −83%
- Mean Optical Densities [5, 11]: 0.150
- Percent Growth [5, 11]: −81%
- Mean Optical Densities [5, 12]: 1.691
- Percent Growth [5, 12]: 86%
- Mean Optical Densities [5, 13]: 1.607
- Percent Growth [5, 13]: 78%
- Mean Optical Densities [5, 14]: 1.646
- Percent Growth [5, 14]: 82%
- CC50 ([5]; CAKI-1, read-out: LC50): 6510 nM
- CC50 ([5]; CAKI-1, read-out: Log10 LC50 (converted)): 6460 nM
- GI50 ([5]; CAKI-1, read-out: GI50): 1650 nM
- GI50 ([5]; CAKI-1, read-out: Log10 GI50 (converted)): 1660 nM
- CC50 ([6]; RXF 393, read-out: LC50): 7100 nM
- CC50 ([6]; RXF 393, read-out: Log10 LC50 (converted)): 7080 nM
- GI50 ([6]; RXF 393, read-out: GI50): 1640 nM
- GI50 ([6]; RXF 393, read-out: Log10 GI50 (converted)): 1620 nM
- Log10 TGI ([6]; RXF 393): −5.47
- TGI ([6]; RXF 393): 3410 nM
- Mean Optical Densities [6, 15]: 0.083
- Percent Growth [6, 15]: −74%
- Mean Optical Densities [6, 16]: 0.086
- Percent Growth [6, 16]: −73%
- Mean Optical Densities [6, 17]: 0.943
- Percent Growth [6, 17]: 84%
- Mean Optical Densities [6, 18]: 1.028
- Percent Growth [6, 18]: 95%
- Mean Optical Densities [6, 19]: 1.017
- Percent Growth [6, 19]: 94%
- Log10 TGI [7]: −5.55
- TGI [7]: 2820 nM
- GI50 ([7]; read-out: GI50): 1290 nM
- CC50 ([7]; read-out: LC50): 6170 nM
- GI50 [7, 9]: 1290 nM
- CC50 ([7]; read-out: Log10 LC50 (converted)): 6170 nM
- Mean Optical Densities ([7]; Log10 conc -4.0 Moles/L): 0.036
- Percent Growth ([7]; Log10 conc -4.0 Moles/L): −90%
- Mean Optical Densities ([7]; Log10 conc -5.0 Moles/L): 0.069
- Percent Growth ([7]; Log10 conc -5.0 Moles/L): −81%
- Mean Optical Densities ([7]; Log10 conc -6.0 Moles/L): 0.668
- Percent Growth ([7]; Log10 conc -6.0 Moles/L): 66%
- Mean Optical Densities ([7]; Log10 conc -7.0 Moles/L): 0.701
- Percent Growth ([7]; Log10 conc -7.0 Moles/L): 73%
- Mean Optical Densities ([7]; Log10 conc -8.0 Moles/L): 0.717
- Percent Growth ([7]; Log10 conc -8.0 Moles/L): 76%
- CC50 ([8]; UO-31, read-out: LC50): 5030 nM
- CC50 ([8]; UO-31, read-out: Log10 LC50 (converted)): 5010 nM
- GI50 ([8]; UO-31, read-out: GI50): 1200 nM
- GI50 ([8]; UO-31, read-out: Log10 GI50 (converted)): 1200 nM
- Log10 TGI ([8]; UO-31): −5.61
- TGI ([8]; UO-31): 2450 nM
- Mean Optical Densities ([8]; UO-31, Log10 conc -4.0 Moles/L): 0.039
- Percent Growth ([8]; UO-31, Log10 conc -4.0 Moles/L): −87%
- Mean Optical Densities ([8]; UO-31, Log10 conc -5.0 Moles/L): 0.006
- Percent Growth ([8]; UO-31, Log10 conc -5.0 Moles/L): −98%
- Mean Optical Densities ([8]; UO-31, Log10 conc -6.0 Moles/L): 0.833
- Percent Growth ([8]; UO-31, Log10 conc -6.0 Moles/L): 63%
- Mean Optical Densities ([8]; UO-31, Log10 conc -7.0 Moles/L): 1.056
- Percent Growth ([8]; UO-31, Log10 conc -7.0 Moles/L): 89%
- Mean Optical Densities ([8]; UO-31, Log10 conc -8.0 Moles/L): 1.076
- Percent Growth ([8]; UO-31, Log10 conc -8.0 Moles/L): 91%
